The values below come from patent publication US12030897B2, “Pyrrolo[2,1-f][1,2,4]triazine derivatives serving as selective HER2 inhibitors and application thereof” (MEDSHINE DISCOVERY INC., priority 2018, dated 2024).

Values joined by “and” are separate entries in the source; they are usually repeats but may differ in a detail not shown here. Identical values can stand only once.

Test [1] addresses HER1 (ErbB1) (Homo sapiens (Human), UniProt P00533). Nature of the test: In vitro enzyme activity, HER1 (ErbB1), [γ-33P]ATP filter assay. The class given is biochemical. The method, then: The object of this test is to detect the in vitro inhibitory activity of the compound against HER1 (ErbB1), HER2 (ErbB2) and HER4 (ErbB4). The enzymes used in this test were human ErbB1, ErbB2 and ErbB4.
(§1) Experimental Steps and Methods (96-Well Plate):
(§2) 5-fold diluted tested compound buffer (5 μL), peptide substrate poly(Glu, Tyr) (4:1) (2.5 μL), ErbB (4-20 ng, 2.5 μL), MnCl2 (50 mM, 1.25 μL), dH2O (3.75 μL) and [γ-^33P]ATP (10 μL) were added, and incubated at 30° C. for 10 min. 3% phosphoric acid was added to terminate the reaction, and 10 μL of the specimen was transferred to Filtermate A. The filter was washed with 75 mM phosphoric acid for three times and methanol once, and transferred to a sealed plastic bag, and a scintillation fluid mixture (4 mL) was added, The intensity of the emitted photons was detected on the scintillation luminescence counter. The photon intensity of the enzyme sample was compared with the photon intensity of the internal control sample, and the level of photon intensity reflected the strength of the tyrosine kinase activity.

The target of test [2] is HER2 (ErbB2) (Homo sapiens (Human), UniProt P04626). Nature of the test: In vitro enzyme activity, HER2 (ErbB2), [γ-33P]ATP filter assay. The class given is biochemical. The method, then:
(§3) The object of this test is to detect the in vitro inhibitory activity of the compound against HER1 (ErbB1), HER2 (ErbB2) and HER4 (ErbB4). The enzymes used in this test were human ErbB1, ErbB2 and ErbB4. Eurofins Pharma Discovery Service provided the activity detection method, and the results of the inhibitory activity of the tested compound against HER1, HER2 and HER4 were shown in Table 1.
as §1, §2

Test [3] deals with HER4 (ErbB4) (Homo sapiens (Human), UniProt Q15303). Nature of the test: In vitro enzyme activity, HER4 (ErbB4), [γ-33P]ATP filter assay. The test is classed as biochemical. On the procedure:
as §3, §1, §2

Test [4] concerns NCI-N87 cell. Nature of the test: Cell proliferation inhibitory activity, Cell-Titer-Glo, NCI-N87. The class given is cell-based, human. Particulars: 3 days incubation. An excerpt: (§4) Experiment object: to detect the inhibitory activity of the tested compound on cell proliferation.
(§5) Experimental principle: the luciferase in the Cell-Titer-Glo reagent uses luciferin, oxygen and ATP as reaction substrates to produce oxyluciferin and release energy in the form of light. Since the luciferase reaction requires ATP, the total amount of light produced by the reaction is proportional to the total amount of ATP that reflects cell viability.
(§6) Experimental Materials: • cell lines: NCI-N87 cell line (ATCC-CRL-5822); BT-474 cell line (ATCC-HTB-20) • Cell culture medium: RPMI 1640 medium (Invitrogen #22400-105; 10% serum Invitrogen #10090148; L-glutamine 1×, Gibco #25030-081; double antibody Hyclone #SV30010) • CellTiter-Glo® luminescence cell viability detection kit (Promega #G7573) • 384-well cell culture plate (Greiner #781090) • Compound plate (LABCYTE #LP-0200) • CO2 incubator (Thermo #371) • Vi-cell cell counter (Beckman Coulter) • Pipette (Eppendorf) • Pipette (Greiner) • Pipetting gun (Eppendorf) • Multifunctional microplate reader (Envision Reader) • ECHO Liquid-handling workstation (Labcyte-ECHO555)
(§7) The cells were inoculated in a 384-well plate with a density of 1000 cells per well and 25 μL per well. The edge wells were not inoculated with cells, and was supplemented with 25 μL of phosphate buffer.
(§8) The compound was added to the plate with 9 μL per well.
(§9) (2) The compound was diluted with ECHO liquid-handling workstation, and each well of the cell plate was added with 125 nL of compound. Each well of the cell wells of columns 2 and 23 was added with 125 nL of DMSO, and each well of the Media wells of columns 1 and 24 was added with 125 nL of DMSO.
(§10) (3) Each well of the cell plate was supplemented with 25 μL of culture medium, and the final volume in each well of the cell plate was 50 μL. The concentration of the compound was 10 μM, which was subjected to 3 fold dilution to obtain 10 concentrations. Each concentration was duplicated in left and right wells, and the final DMSO concentration was 0.25%.
(§11) 2.3 After adding the compound, it was centrifuged at 1000 rpm for 1 min. The cell plate was placed in a 37° C., 5% CO2 incubator for 3 days.
(§12) The cell plate was taken from the incubator and equilibrated at room temperature for 30 min. 25 μL of Cell-Titer-Glo reagent was added to each well, shaken for 1 min to make it thoroughly mixed, and centrifuged at 1000 rpm for 1 min. After 10 min, the plate was read on PerkinElmer Envision, and the […] reading time was set to 0.2 seconds.

In test [5] the test system is BT-474 cell. Nature of the test: Cell proliferation inhibitory activity, Cell-Titer-Glo, BT-474. The class given is cell-based. Particulars: Homo sapiens, BT-474, 72 h; 3 days incubation.
Excerpt: as §4, §5, §6, §7, §8, §9, §10, §11, §12

Test [6] deals with human breast cancer BT-474 cell subcutaneous xenograft tumor. Nature of the test: In vivo efficacy, BT-474 subcutaneous xenograft tumor model. More on the design: species or system BALB/c nude mice. The conditions noted are these: BT-474 xenograft, 100 mg/kg. On the procedure:
Experiment object: to study the in vivo efficacy of the tested compound in human breast cancer BT-474 cell BALB/c nude mouse subcutaneous xenograft tumor model.
Experimental animals: female BALB/c nude mice, 6 to 8 weeks old, weight: 18 to 22 grams; Supplier Beijing Weitonglihua Laboratory Animal Technology Co., Ltd.
Human breast cancer BT474 cells were cultured in a monolayer in vitro. The culture conditions were: ATCC Hybri-Care Medium with 1.5 g/L sodium bicarbonate, 10% fetal bovine serum, 100 U/mL penicillin and 100 μg/mL streptomycin, and 37° C., 5% CO2 incubator. Conventional digestion treatment with pancreatin-EDTA for passage was carried out twice a week. When the cell saturation was 80% to 90%, and the number reached the requirement, the cells were collected, counted and inoculated.
0.2 mL (1×10^7 cells) of BT474 cells (with matrigel in a volume ratio of 1:1) were subcutaneously inoculated on the right back of each mouse. The grouping and administration were started when the average tumor volume reached about 168 mm^3. (Estrogen tablets were inoculated three days before cell inoculation).
7.3 the Preparation of the Tested Samples, Tumor Measurement, Experimental Index and Statistical Analysis were the Same as in Experimental Example 6.

Chain of HER1 (ErbB1) (P00533 25-1210): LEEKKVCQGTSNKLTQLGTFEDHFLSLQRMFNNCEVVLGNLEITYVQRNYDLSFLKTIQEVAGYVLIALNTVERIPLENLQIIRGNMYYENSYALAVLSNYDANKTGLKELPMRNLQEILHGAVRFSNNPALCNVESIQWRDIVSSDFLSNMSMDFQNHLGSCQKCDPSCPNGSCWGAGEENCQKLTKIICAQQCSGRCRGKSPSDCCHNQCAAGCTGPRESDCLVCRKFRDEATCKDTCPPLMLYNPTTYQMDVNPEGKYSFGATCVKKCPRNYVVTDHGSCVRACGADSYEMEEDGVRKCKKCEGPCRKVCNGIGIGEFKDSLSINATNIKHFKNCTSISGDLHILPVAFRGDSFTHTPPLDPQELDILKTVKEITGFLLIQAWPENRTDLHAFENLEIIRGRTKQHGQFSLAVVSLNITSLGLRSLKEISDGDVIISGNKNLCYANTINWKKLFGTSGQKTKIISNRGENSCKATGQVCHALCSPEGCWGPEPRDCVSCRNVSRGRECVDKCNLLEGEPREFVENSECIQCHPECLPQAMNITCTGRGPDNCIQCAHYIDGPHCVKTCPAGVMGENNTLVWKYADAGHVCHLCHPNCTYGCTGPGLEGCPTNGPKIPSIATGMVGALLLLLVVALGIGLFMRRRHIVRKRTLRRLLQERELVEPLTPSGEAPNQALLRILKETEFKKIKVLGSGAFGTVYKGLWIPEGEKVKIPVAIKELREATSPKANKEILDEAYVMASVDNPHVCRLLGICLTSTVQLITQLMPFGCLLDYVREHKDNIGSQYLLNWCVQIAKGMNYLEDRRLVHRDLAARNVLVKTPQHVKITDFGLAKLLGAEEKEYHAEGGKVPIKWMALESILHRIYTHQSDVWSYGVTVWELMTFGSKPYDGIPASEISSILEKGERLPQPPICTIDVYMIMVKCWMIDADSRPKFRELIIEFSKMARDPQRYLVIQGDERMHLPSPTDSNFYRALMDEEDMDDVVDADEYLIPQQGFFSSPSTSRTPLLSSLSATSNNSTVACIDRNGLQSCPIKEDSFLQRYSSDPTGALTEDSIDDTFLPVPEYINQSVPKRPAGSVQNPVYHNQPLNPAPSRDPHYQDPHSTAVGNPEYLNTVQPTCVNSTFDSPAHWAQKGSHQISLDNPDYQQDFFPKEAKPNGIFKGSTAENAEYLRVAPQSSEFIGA
Chain of HER2 (ErbB2) (P04626 23-1255): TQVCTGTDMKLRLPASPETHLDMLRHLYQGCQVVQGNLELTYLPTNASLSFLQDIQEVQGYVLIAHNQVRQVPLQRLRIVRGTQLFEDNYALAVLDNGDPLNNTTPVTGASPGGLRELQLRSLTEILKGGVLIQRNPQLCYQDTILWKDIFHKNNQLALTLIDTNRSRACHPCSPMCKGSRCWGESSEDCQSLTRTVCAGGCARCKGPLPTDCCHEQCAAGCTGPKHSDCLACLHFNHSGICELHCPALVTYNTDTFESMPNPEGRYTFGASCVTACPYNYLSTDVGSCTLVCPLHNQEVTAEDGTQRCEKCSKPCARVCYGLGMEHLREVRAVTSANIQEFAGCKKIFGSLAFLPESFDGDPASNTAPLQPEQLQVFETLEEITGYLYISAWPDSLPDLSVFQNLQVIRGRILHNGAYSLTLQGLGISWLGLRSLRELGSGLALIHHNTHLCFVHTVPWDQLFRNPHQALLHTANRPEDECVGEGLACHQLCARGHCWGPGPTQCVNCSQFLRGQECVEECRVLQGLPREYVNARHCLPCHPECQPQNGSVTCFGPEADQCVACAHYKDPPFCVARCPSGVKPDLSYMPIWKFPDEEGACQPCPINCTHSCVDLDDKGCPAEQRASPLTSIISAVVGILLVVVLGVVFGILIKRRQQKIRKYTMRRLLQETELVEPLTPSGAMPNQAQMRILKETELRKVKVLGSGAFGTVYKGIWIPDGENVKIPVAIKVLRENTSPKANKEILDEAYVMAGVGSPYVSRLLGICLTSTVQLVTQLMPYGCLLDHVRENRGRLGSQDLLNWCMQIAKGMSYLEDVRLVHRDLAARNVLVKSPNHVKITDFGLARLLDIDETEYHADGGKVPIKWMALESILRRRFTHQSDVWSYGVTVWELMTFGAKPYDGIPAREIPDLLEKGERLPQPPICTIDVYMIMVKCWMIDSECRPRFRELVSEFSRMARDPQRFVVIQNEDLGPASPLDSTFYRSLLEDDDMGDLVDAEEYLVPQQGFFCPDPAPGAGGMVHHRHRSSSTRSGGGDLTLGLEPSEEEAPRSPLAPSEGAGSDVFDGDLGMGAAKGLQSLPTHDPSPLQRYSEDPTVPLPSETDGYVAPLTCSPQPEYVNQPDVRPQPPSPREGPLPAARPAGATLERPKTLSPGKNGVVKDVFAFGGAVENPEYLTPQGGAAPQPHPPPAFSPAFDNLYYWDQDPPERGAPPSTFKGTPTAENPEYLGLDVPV
Chain of HER4 (ErbB4) (Q15303 26-1308): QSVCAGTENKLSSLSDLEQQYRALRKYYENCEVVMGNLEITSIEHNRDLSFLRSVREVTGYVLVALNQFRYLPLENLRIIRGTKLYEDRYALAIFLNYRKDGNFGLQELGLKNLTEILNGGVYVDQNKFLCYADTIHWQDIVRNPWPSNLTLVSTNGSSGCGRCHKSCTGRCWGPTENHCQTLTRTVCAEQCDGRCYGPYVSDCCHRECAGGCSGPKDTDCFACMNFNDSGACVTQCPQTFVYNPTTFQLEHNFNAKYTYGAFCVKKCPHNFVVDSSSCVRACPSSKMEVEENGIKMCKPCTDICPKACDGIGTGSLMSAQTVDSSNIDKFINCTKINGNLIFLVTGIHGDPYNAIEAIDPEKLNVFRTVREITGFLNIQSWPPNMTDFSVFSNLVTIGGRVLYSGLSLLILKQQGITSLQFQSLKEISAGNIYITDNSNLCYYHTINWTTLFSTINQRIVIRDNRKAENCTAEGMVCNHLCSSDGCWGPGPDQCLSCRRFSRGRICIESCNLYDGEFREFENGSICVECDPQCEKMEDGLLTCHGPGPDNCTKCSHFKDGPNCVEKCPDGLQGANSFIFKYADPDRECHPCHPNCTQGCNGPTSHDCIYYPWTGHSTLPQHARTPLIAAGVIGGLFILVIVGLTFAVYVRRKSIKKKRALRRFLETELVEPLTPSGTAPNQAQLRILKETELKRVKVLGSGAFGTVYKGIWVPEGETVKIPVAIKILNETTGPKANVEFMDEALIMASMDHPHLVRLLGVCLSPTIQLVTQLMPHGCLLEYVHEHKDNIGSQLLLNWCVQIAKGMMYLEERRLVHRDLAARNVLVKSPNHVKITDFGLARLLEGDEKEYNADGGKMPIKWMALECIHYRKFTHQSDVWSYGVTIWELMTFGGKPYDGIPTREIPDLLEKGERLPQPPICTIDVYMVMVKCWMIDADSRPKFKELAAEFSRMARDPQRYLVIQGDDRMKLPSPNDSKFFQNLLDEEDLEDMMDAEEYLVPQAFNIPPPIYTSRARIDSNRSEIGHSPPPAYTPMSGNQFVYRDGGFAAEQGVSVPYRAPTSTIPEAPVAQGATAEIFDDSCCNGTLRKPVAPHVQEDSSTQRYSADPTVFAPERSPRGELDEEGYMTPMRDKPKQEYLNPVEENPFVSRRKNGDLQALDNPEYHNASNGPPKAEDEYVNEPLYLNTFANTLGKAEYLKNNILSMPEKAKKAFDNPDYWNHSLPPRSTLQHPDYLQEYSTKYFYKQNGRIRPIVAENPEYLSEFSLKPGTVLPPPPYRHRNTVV

Turning to `Cc1cc(Nc2ncnn3ccc(CN4CCNCC4)c23)ccc1Oc1ccn2ncnc2c1` [Example 1], the results for the IC50 in test [1], in test [2] and in test [3] were > 1000 nM, 24 nM and > 1000 nM, respectively.

For the molecule `Cc1cc(Nc2ncnn3ccc(CN4CCCNCC4)c23)ccc1Oc1ccn2ncnc2c1` [Example 5], the IC50 (in general, the point on the concentration scale where inhibition reaches its midpoint) in test [4] (Homo sapiens, NCI-N87, 72 h) is 59 nM; in test [5], 97 nM; in test [1], > 1000 nM; in test [2], 16 nM; in test [3] it was > 1000 nM.

Regarding `Cc1cc(Nc2ncnn3ccc(CN4[C@@H]5CC[C@H]4C[C@H](O)C5)c23)ccc1Oc1ccn2ncnc2c1` [Example 6], the IC50 turned out to be 4 nM in test [4] (Homo sapiens, NCI-N87, 72 h); 743 nM in test [1]; 18 nM in test [2]; 150 nM in test [3].

On to `Cc1cc(Nc2ncnn3ccc(CN4C[C@H]5CC[C@@H](C4)[C@H]5N)c23)ccc1Oc1ccn2ncnc2c1` [Example 7], for which the IC50 is 27 nM in test [4] (Homo sapiens, NCI-N87, 72 h); 10 nM in test [2]; > 1000 nM in test [3].

For the molecule `Cc1cc(Nc2ncnn3ccc(CN4[C@@H]5CC[C@H]4C[C@H](N)C5)c23)ccc1Oc1ccn2ncnc2c1` [Example 8], the IC50 in test [4] (Homo sapiens, NCI-N87, 72 h) came out at 20 nM; in test [1], 385 nM; in test [2] it was 10 nM; in test [3], 184 nM.

Consider `Cc1cc(Nc2ncnn3ccc(CN4CCC(C)(N)CC4)c23)ccc1Oc1ccn2ncnc2c1` [Example 9], for which the IC50 was determined as 8 nM in test [4] (Homo sapiens, NCI-N87, 72 h); 325 nM in test [1]; 11 nM in test [2]; 201 nM in test [3].

Take `Cc1cc(Nc2ncnn3ccc(CN4CC(O)C4)c23)ccc1Oc1ccn2ncnc2c1` [Example 12]: half-maximal inhibition in test [4] (Homo sapiens, NCI-N87, 72 h) (IC50) required 52 nM.

`Cc1cc(Nc2ncnn3ccc(CN4CCC(O)CC4)c23)ccc1Oc1ccn2ncnc2c1` [Example 16]: the IC50 in test [4] (Homo sapiens, NCI-N87, 72 h) is 38 nM; in test [1], 861 nM; in test [2] it was 7 nM; in test [3], 535 nM.

With `COCCNC1CCN(Cc2ccn3ncnc(Nc4ccc(Oc5ccn6ncnc6c5)c(C)c4)c23)CC1` [Example 18], the IC50 in test [4] (Homo sapiens, NCI-N87, 72 h) was 65 nM; in test [1], 509 nM; in test [2], 4 nM; in test [3], > 1000 nM.

`CCNC1CCN(Cc2ccn3ncnc(Nc4ccc(Oc5ccn6ncnc6c5)c(C)c4)c23)CC1` [Example 19] displayed an IC50 in test [4] (Homo sapiens, NCI-N87, 72 h) of 23 nM.

Turning to `COCC1(N)CCN(Cc2ccn3ncnc(Nc4ccc(Oc5ccn6ncnc6c5)c(C)c4)c23)CC1` [Example 20], the IC50 in test [4] (Homo sapiens, NCI-N87, 72 h) was 9 nM; in test [5], 88 nM; in test [1], 167 nM; in test [2] it was 7 nM; in test [3], 230 nM.

For `Cc1cc(Nc2ncnn3ccc(CN4CC[C@H](N)[C@@H](F)C4)c23)ccc1Oc1ccn2ncnc2c1` [Example 21], the IC50 in test [4] was 19 nM; in test [1], 909 nM; in test [2] it was 4 nM; in test [3], > 1000 nM.

`Cc1cc(Nc2ncnn3ccc(CN4CC[C@H](N)[C@@H](F)C4)c23)ccc1Oc1ccn2ncnc2c1` [Example 23]: the IC50 turned out to be 3 nM in test [4], 61 nM in test [1], 2 nM in test [2] and 41 nM in test [3].

Turning to `CO[C@H]1CN(Cc2ccn3ncnc(Nc4ccc(Oc5ccn6ncnc6c5)c(C)c4)c23)CC[C@@H]1N` [Example 25], the IC50 was found to be 14 nM in test [4], 207 nM in test [1], 2 nM in test [2] and 369 nM in test [3].

In test [4] (Homo sapiens, NCI-N87, 72 h), `Cc1cc(Nc2ncnn3ccc(CC4CCC(N)CC4)c23)ccc1Oc1ccn2ncnc2c1` (stereo not shown) [Example 29] had an IC50 of 27 nM.

With `NC1CCN(Cc2ccn3ncnc(Nc4ccc(Oc5ccn6ncnc6c5)c(C(F)(F)F)c4)c23)CC1` [Example 30], the IC50 in test [1] was 663 nM; in test [2] it was 14 nM; in test [3], > 1000 nM.

Consider `Cc1c(Oc2ccn3ncnc3c2)ccc(Nc2ncnn3ccc(CN4CCC(N)CC4)c23)c1F` [Example 31], for which the IC50 is 31 nM in test [4] (Homo sapiens, NCI-N87, 72 h); 667 nM in test [1]; 3 nM in test [2]; > 1000 nM in test [3].

As to `NC1CCN(Cc2ccn3ncnc(Nc4ccc(Oc5ccn6ncnc6c5)c(Cl)c4F)c23)CC1` [Example 32], the RTV in test [6] (day 20) is 0.61 ± 0.06. In test [6] (day 20), the T/C – broadly, the ratio of treated to control – worked out at 7.84%. Moreover, in test [6] (day 20), the TGI is reported as 106.44%. Further, the Tumor volume in test [6] (day 20 (head: Day 21), mean ± SEM) was 101 mm^3 and 101 ± 12 mm^3. For the same molecule, the half-maximal inhibitory concentration (IC50) in test [4] (Homo sapiens, NCI-N87, 72 h) was 11 nM; in test [5] it was 87 nM; in test [1], 284 nM; in test [2], 2 nM; in test [3], 356 nM.
